Consider one compound from patent publication US20240240226A1, “FLUOROGENIC ASSAY FOR RAPID SCREENING OF BACTERIAL BETA-LACTAMASE ACTIVITY” (The Board of Trustees of the Leland Stanford Junior …, priority 2021, published 2024).

One assay deals with E. coli/KPC-3. The assay can be described thus: CDA/H2O2 detection of live E. coli expressing KPC-3 carbapenemase. It counts as cell-based. The settings on record: CDA 10 μM, H2O2 1 mM, room temperature. How it is done:
FIG. 23 illustrates the fluorescence enhancement of CDA incubated with different concentrations of E. coli expressing KPC-3 carbapenemase in PBS at room temperature; CDA, 10 μM, and H2O2, 1 mM. The signal of CDA in H2O2 was subtracted and the absolute values were plotted. Data were collected on a Tecan Safire microplate reader with excitation at 570 nm and emission at 600 nm. A.U. indicates arbitrary units.
Factoring the 100 μL assay volume, as low as 100 bacteria in one 96 well were detectable with the assay. A concentration of H2O2 at 1-2 mM efficiently oxidized the processed CDA to resorufin inside E. coli. Next, the assay was used to detect E. coli/IMP-1 and E. coli/KPC-3 (FIGS. 3e and 23). E. coli/IMP-1 was detected at […] within 2 hours, and E. coli/KPC-3 could be reliably detected at around 10^5-10^6 c.f.u./mL.
Bacteria growth and assay: E. coli (BL21 or TOP10) transformed to express TEM-1 Bla, IMP-1, and KPC3 were grown in LB medium and induced with 0.2% arabinose for 6-8 h at 30° C., 205 rpm. Colony forming units per milliliter (c.f.u./mL) were determined by measuring the UV absorbance at OD600.
For CDA incubation, 10 μM working solution was prepared freshly by diluting stock solution (1 mM in pure DMSO) in PBS (pH 7.05). A light-safe tube or foil wrap was used to prevent photobleaching.

Assay [1] relates to β-lactamase producing bacteria. As to the kind of experiment: Two-step filtration CDA/H2O2 assay of bacteria in synthetic urine. Format: cell-based, E. coli, K. pneumoniae, E. cloacae, S. marcescens. The settings on record: for bacteria concentration in urine detectable: two-step filtration, 250-fold enrichment, H2O2 1 mM. How it is done:
(§1) FIG. 4 illustrates the detection of lactam-resistant bacteria in urine samples. a) Illustration of the workflow in bacteria isolation and concentration from a urine sample for detection. The sample is first filtrated by a 5-μm filter to trap cells and large debris followed by a 0.22-μm filter to trap bacteria. The 0.22-μm filter is washed once before PBS/H2O2 (1 mM) is directed through the 0.22-μm filter in the opposite direction with a new syringe to recover the concentrated bacteria for detection in a plate reader. b) Longitudinal monitoring of fluorescence enhancement with CDA and concentrated E. coli, K. pneumoniae, K. pneumoniae/KPC, E. coli/TEM-1, E. coli/IMP-1, E. coli/KPC-3, E. cloacae/IMP, S. marcescens/SME, and E. coli/OXA-48 in the presence of H2O2 (1 mM). Star* indicate clinical isolates. The study was duplicated at room temperature with PBS as the buffer. The signal of CDA alone in PBS containing H2O2 (1 mM) was subtracted and the absolute values were plotted. The working concentration of CDA was 10 μM. Data were collected on a Tecan Safire microplate reader with excitation at 570 nm and emission at 600 nm. A.U. indicates arbitrary units.
To develop an easy-to-use, point-of-care assay for screening cephalosporin and carbapenem resistance, a simple two-step filtration method was employed (FIG. 26) to prepare and concentrate pathogenic bacteria, similar to a procedure applied for improving culture-based AST previously (Avesar et al., Procs. Nat. Acad. Sci. U.S.A, 2017, 114, E5787-E5795). […] The 5-micron filter would trap particles including cells and large debris, and bacteria would be collected by the 0.22-micron filter and washed by PBS. A reverse elution with PBS containing 1 mM H2O2 allowed immediate high-throughput analysis by a plate reader in a 96-well plate precoated with CDA. […] 50 mL of synthetic urine spiked with bacteria could be concentrated to approximately 200 μL ready-to-use suspension within a few minutes; polypropylene filters recover bacteria more efficiently (>90%) than commonly used nylon filters (FIG. 27). […]

The next assay relates to K. pneumoniae. As to the kind of experiment: Two-step filtration CDA/H2O2 urine assay, negative control K. pneumoniae. It counts as cell-based. The note with it: K. pneumoniae without β-lactamase, concentrated from urine. On the procedure:
as §1, with “units. […]” for “units.”

The test system of the next assay is esterase. As to the kind of experiment: Response of CDA to H2O2 with esterases alone. It counts as biochemical.

Several values for one entry are separate records, joined by “and”; a condition that tells them apart may be missing. Equal values may be shown once.

As to `CC(=O)Oc1ccc2c(c1)Oc1cc(OC(C)=O)ccc1N2C(=O)OCc1ccc(SCC2=C(C(=O)O)N3C(=O)[C@@H](NC(=O)Cc4ccccc4)[C@H]3SC2)cc1` [CDA, 3-(((4-(((3,7-diacetoxy-10H-phenoxazine-10-carbonyl)oxy)methyl)phenyl)thio)methyl)-8-oxo-7-(2-phenylacetamido)-5-thia-1-azabicyclo[4.2.0]oct-2-ene-2-carboxylic acid], the “bacteria concentration reliably detected” value with E. coli/KPC-3 is given as 10^5-10^6 c.f.u./mL. In addition, the “fluorescent signal over time” value in assay [1] (all β-lactamase producing bacteria, after 250-fold enrichment) was “time dependent increase of fluorescent signal”. Moreover, the “bacteria concentration in urine detectable” value is 10^5 c.f.u./mL in assay [1] (within 1 hour); 10^3 c.f.u./mL and 10^4 c.f.u./mL in assay [1] (within 2 hours, room temperature). The “fluorescent signal of negative control” value with K. pneumoniae is “almost undetectable”. Besides, the “change of the response of CDA to H2O2” value in the assay on esterase is “barely changed”.
